{"source": "patent US11464749B2", "about": "“Bismuth-thiol compositions and methods of use” (Microbion Corporation, priority 2018, dated 2022)", "key": {"[1]": {"assay": "Aerosol testing of BisEDT suspension formulations (aerosol concentration, particle size)", "format": "physicochemical", "settings": "Lot # ED268-1-11-01; 25 mg/mL formulation", "excerpt": "Objective: The objective of this study was to develop methods for the nose-only inhalation exposures of BisEDT for rodents. The aerosols were generated from suspension formulations of BisEDT in aqueous media (0.5% TWEEN 80® in Sodium Phosphate Buffer, pH 7.4). […] Suspension formulations were created by sonication with neat API with 0.5% TWEEN 80® in Sodium Phosphate Buffer, pH 7.4. This was further refined by adjusting the vehicle to an osmolality of 300 mOsmol/kg. Aerosols were characterized for particle size distribution and aerosol concentration. Aerosol concentration was determined by differential mass and chemical analysis of the aerosol filter samples.\nAerosol Methods: Formulation—Suspension formulations of BisEDT were prepared in 0.5% TWEEN 80® in Sodium Phosphate Buffer, pH 7.4. Suspensions of 2.5, 10, 25, 50, 75 and 100 mg/mL were prepared by sonication with a Covaris sonicator. In later tests, the vehicle was adjusted with sodium chloride to achieve an Osmolality of 300 mOsmol/kg. Suspensions were prepared at 2.5, 50, and 100 mg/mL.\nAerosol concentration was measured at the breathing zone of the exposure system by collection of the aerosol onto 47-mm filters (Whatman GF/A membrane filters). Filter samples were collected at a nominal flowrate of 0.3 L/min. Aerosol mass concentration was determined by differential weight analysis of the filter samples. […]"}, "[2]": {"assay": "Particle size of BisEDT microparticles (Nanosizer/Zetasizer)", "format": "physicochemical", "settings": "resuspended in 2% Pluronic F-68, sonicated", "description": "The dried particulate matter was characterized to assess the particle size properties. Briefly, microparticles were resuspended in 2% Pluronic® F-68 (BASF, Mt. Olive, N.J.) and the suspension was sonicated for 10 minutes in a water bath sonicator at standard setting prior to analysis using a Nanosizer/Zetasizer Nano-S particle analyzer (model ZEN1600 (without zeta-potential measuring capacity), Malvern Instruments, Worcestershire, UK) according to the manufacturer's recommendations."}, "[3]": {"assay": "Face mask inhalation in beagle dogs: hematology", "format": "in vivo", "settings": "inhalation Day 0 and Day 7, successive samplings", "description": "Once adequately conditioned to the restraint device and face-masks, the animals are individually exposed to the test article aerosols. Animals receive a single face-mask inhalation exposure in a ramp study design to test article aerosols for up to 60 min. Animal observations during and post exposure determine the tolerance of inhaled BisEDT aerosols.\nGroup 1 (vehicle) are exposed to a vehicle atmosphere for 30 minutes. Group 2 (50 μg/kg) are exposed to BisEDT for 30 minutes. Target concentrations and exposure durations for Groups 3-5 are based on the presence of any toxicity via clinical observations or gross necropsy findings. In each of Groups 3-5, if no adverse clinical signs of toxicity are observed, the next groups' exposure will be conducted at a higher target dose. If adverse clinical signs of toxicity are observed, the next groups' exposure will be conducted at a lower target dose. This approach is repeated for all BisEDT doses. The final documented exposure duration is the maximum tolerated dose or the maximum feasible dose.\nThe aerosol generation system couples a commercially available compressed air jet nebulizer to a chamber that allows the aerosols to transition to the animals. […]\nHematology samples are analyzed by automated (ADVIA™ 120 Hematology System, Siemens Medical Solutions Diagnostics, Tarrytown, N.Y.) analyses. Disposition will be recorded on the sample processing form."}, "[4]": {"assay": "Particle size distribution of exposure aerosols (In-Tox Mercer Impactor)", "settings": "rat efficacy study exposure atmospheres"}, "[5]": {"system": "anaerobes", "assay": "Agar dilution MIC (Example 11)", "format": "cell-based", "settings": "read-out: MIC values"}, "[6]": {"system": "Candida albicans", "assay": "Broth microdilution antifungal susceptibility (Example 13)", "format": "cell-based", "settings": "Candida albicans"}, "[7]": {"system": "A. fumigatus", "assay": "Broth microdilution antifungal susceptibility (Example 13)", "format": "cell-based", "settings": "for MIC: Aspergillus fumigatus"}, "[8]": {"system": "S. maltophilia", "assay": "MIC against CF bacterial strains (Example 5)", "settings": "Stenotrophomonas maltophilia"}}, "note": "Several values for one entry are separate records, joined by “and”; a condition that tells them apart may be missing. Identical values can stand only once. Like-named read-outs stand apart in the source and are kept apart here."}
{"smiles": "C1C[S][Bi]([S]CC[S][Bi]2[S]CC[S]2)[S]1", "note": "[BisEDT, bismuth-1,2-ethanedithiol]", "values": [{"measurement": "BisEDT Aerosol Conc., average of all extracted concentrations incl. outlier filter", "setting": "[1]", "result": 64.4, "unit": "µg/L"}, {"measurement": "peak volumetric mean diameter (VMD) of microparticles", "setting": "[2]", "result": "about 1.3 microns"}, {"measurement": "LUC", "setting": "[3]; dog Group 2, lung deposited 55-56 ug/kg, lines = animal 2001, 2002 or Grp Avg", "result": "0.01 ^3/uL and 0.02 ^3/uL"}, {"measurement": "LUC", "setting": "[3]; dog Group 4, lung deposited 176-197 ug/kg, lines = animal 4001-4004 or Grp Avg", "result": "0.01 ^3/uL and 0.02 ^3/uL"}, {"measurement": "MMAD of exposure aerosol", "setting": "[4]", "result": 1.54, "unit": "μm"}]}
{"smiles": "CC(S)C(C)S.[Bi]", "note": "(stereo not shown) [BisBDT, bismuth-2,3-butanedithiol]", "values": [{"measurement": "MIC", "setting": "[5]", "result": "1 to 4", "unit": "µg/mL"}, {"measurement": "MIC", "setting": "[6]; 24 h, read-out: MIC0 (complete inhibition), isolate MMX 7053 (Susceptible), 24 hr", "result": 1, "unit": "µg/mL"}, {"measurement": "MIC", "setting": "[6]; 24 h, read-out: MIC0 (complete inhibition), isolate MMX 7067 (FLU-R, VORI-R), 24 hr", "result": 1, "unit": "µg/mL"}, {"measurement": "MIC", "setting": "[6]; 24 h, read-out: MIC0 (complete inhibition), isolate MMX 7430 (Susceptible), 24 hr", "result": 0.5, "unit": "µg/mL"}, {"measurement": "MIC", "setting": "[6]; 24 h, read-out: MIC0 (complete inhibition), isolate MMX 7437 (FLU-I), 24 hr", "result": 2, "unit": "µg/mL"}, {"measurement": "MIC", "setting": "[6]; 24 h, read-out: MIC0 (complete inhibition), isolate MMX 7445 (FLU-R, VORI-R), 24 hr", "result": 2, "unit": "µg/mL"}, {"measurement": "MIC", "setting": "[6]; 24 h, read-out: MIC2 (50% inhibition)", "result": 1, "unit": "µg/mL"}, {"measurement": "MIC", "setting": "[6]; 24 h, read-out: MIC2 (50% inhibition), isolate ATCC MYA-2732 (FLU-R, VORI-I), 24 hr", "result": 1, "unit": "µg/mL"}, {"measurement": "MIC", "setting": "[6]; 24 h, read-out: MIC2 (50% inhibition), isolate MMX 7053 (Susceptible), 24 hr", "result": 0.5, "unit": "µg/mL"}, {"measurement": "MIC", "setting": "[6]; 24 h, read-out: MIC2 (50% inhibition), isolate MMX 7067 (FLU-R, VORI-R), 24 hr", "result": 0.5, "unit": "µg/mL"}, {"measurement": "MIC", "setting": "[6]; 24 h, read-out: MIC2 (50% inhibition), isolate MMX 7403 (Susceptible), 24 hr", "result": 0.25, "unit": "µg/mL"}, {"measurement": "MIC", "setting": "[6]; 24 h, read-out: MIC2 (50% inhibition), isolate MMX 7424 (CASP-R, MICA-R), 24 hr", "result": 1, "unit": "µg/mL"}, {"measurement": "MIC", "setting": "[6]; 24 h, read-out: MIC2 (50% inhibition), isolate MMX 7430 (Susceptible), 24 hr", "result": 0.25, "unit": "µg/mL"}, {"measurement": "MIC", "setting": "[6]; 24 h, read-out: MIC2 (50% inhibition), isolate MMX 7445 (FLU-R, VORI-R), 24 hr", "result": 1, "unit": "µg/mL"}, {"measurement": "MIC", "setting": "[6]; 24 h, read-out: MIC0 (complete inhibition)", "result": 2, "unit": "µg/mL"}, {"measurement": "MIC", "setting": "[6]; ATCC90028, 24 h, read-out: MIC0 (complete inhibition), isolate ATCC 90028 (Susceptible), 24 hr", "result": 2, "unit": "µg/mL"}, {"measurement": "MIC", "setting": "[6]; ATCC90028, 24 h, read-out: MIC2 (50% inhibition), isolate ATCC 90028 (Susceptible), 24 hr", "result": 0.5, "unit": "µg/mL"}, {"measurement": "MIC", "setting": "[6]; ATCC204276, 24 h, read-out: MIC0 (complete inhibition), isolate ATCC 204276 (MICA-R), 24 hr", "result": 1, "unit": "µg/mL"}, {"measurement": "MIC", "setting": "[6]; ATCC204276, read-out: MIC2 (50% inhibition), isolate ATCC 204276 (MICA-R), result after 48 hr incubation (insufficient growth at 24 hr)", "result": 1, "unit": "µg/mL"}, {"measurement": "MIC0 24 hr", "setting": "[7]; A. fumigatus ATCC MYA-3626, 24 hr", "result": 2, "unit": "µg/mL"}, {"measurement": "MIC0 24 hr", "setting": "[7]; A. fumigatus MMX 5934, 24 hr", "result": 2, "unit": "µg/mL"}, {"measurement": "MEC at 48 hr (MIC0 not observed)", "setting": "[7]; A. fumigatus MMX 5934, 48 hr", "result": 4, "unit": "µg/mL"}, {"measurement": "MIC", "setting": "[7]; ATCC204305, A. fumigatus ATCC 204305, 24 hr, read-out: MIC0 24 hr", "result": 8, "unit": "µg/mL"}, {"measurement": "MIC", "setting": "[7]; ATCC204305, A. fumigatus ATCC 204305, 48 hr, read-out: MEC at 48 hr (MIC0 not observed)", "result": 4, "unit": "µg/mL"}, {"measurement": "MIC", "setting": "[7]; A. fumigatus ATCC MYA-3626, 48 hr, read-out: MIC0 48 hr", "result": 4, "unit": "µg/mL"}, {"measurement": "MIC", "setting": "[7]; A. fumigatus MMX 5939, 24 hr, read-out: MIC0 24 hr", "result": 2, "unit": "µg/mL"}, {"measurement": "MIC", "setting": "[7]; A. fumigatus MMX 5939, 48 hr, read-out: MEC at 48 hr (MIC0 not observed)", "result": 4, "unit": "µg/mL"}, {"measurement": "MIC", "setting": "[7]; read-out: MIC0 48 hr", "result": 1, "unit": "µg/mL"}, {"measurement": "MIC", "setting": "[8]", "result": 0.13, "unit": "µg/mL"}]}
